The conditions of data set [1]: life-threatening side effects; cited from earlier work.
The test system of data set [2] is KDR/VEGFR2. Kind of data set: KDR inhibition. The format is biochemical.
For data set [3], the system named is BP-CML. The settings on record: BP-CML cohort, cited from earlier work.

Regarding `Cc1ccc(C(=O)Nc2ccc(CN3CCN(C)CC3)c(C(F)(F)F)c2)cc1C#Cc1cnc2cccnn12` [Ponatinib], in data set [1], the arterial obstruction was 33%, the heart failure is listed as 9% and the thromboembolism is recorded as 6%. The “KDR inhibition potency relative to KF1601” value in data set [2] is “tenfold greater”. In addition, in data set [3] (within six months), the “patients achieving a major cytological response” value is 23%. The median overall survival result in data set [3] is recorded as “seven”.

The values are drawn from paper PMC11995503 (Molecular Cancer, 2025).
